Columns and labels:
[1] = target: T1, PcThsA (ThsA TM-macro effector), macro domain (Pseudomonas corrugata, UniProt A0A7Y5Z1U6); experiment: crystal structure ([…] Å) with copurified ligand; LC-MS; assay type: binding
T1 construct: gene HNO91_03675; PcThsA^Macro; residues 63 to 278

[2] = target: T2, EcThsA (ThsA TM-macro effector), macro domain (Escherichia coli, UniProt A0A0H2V895, F250A/I219A/K249E/Q207E/R182E/R221E); experiment: ITC; assay type: binding
T2 construct: gene c2400; EcThsA^Macro; residues 62 to 278
T2 sequence (A0A0H2V895 62-278 R182E/Q207E/I219A/R221E/K249E/F250A): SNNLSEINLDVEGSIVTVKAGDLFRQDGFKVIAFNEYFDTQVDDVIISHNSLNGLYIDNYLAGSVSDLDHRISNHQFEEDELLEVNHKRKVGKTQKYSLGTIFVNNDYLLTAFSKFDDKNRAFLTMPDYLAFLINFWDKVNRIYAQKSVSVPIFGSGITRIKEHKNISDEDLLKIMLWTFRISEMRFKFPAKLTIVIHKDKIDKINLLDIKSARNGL

[3] = target: T3, EcThsA (ThsA TM-macro effector), macro domain (Escherichia coli, UniProt A0A0H2V895); experiment: ligand-induced self-aggregation of purified protein (turbidity, SDS-PAGE); assay type: binding
T3 construct: gene c2400; EcThsA^Macro; residues 62 to 278
T3 sequence (A0A0H2V895 62-278): T2 sequence (A0A0H2V895 62-278 R182E/Q207E/I219A/R221E/K249E/F250A)

[4] = target: T4, EcThsB1, TIR domain (Escherichia coli, UniProt A0A0H2V8B5); experiment: real-time 1H NMR NADase assay; assay type: biochemical
T4 construct: gene TcpC; EcThsB1^TIR; residues 165 to 307
T4 sequence (A0A0H2V8B5 165-307 limits assumed): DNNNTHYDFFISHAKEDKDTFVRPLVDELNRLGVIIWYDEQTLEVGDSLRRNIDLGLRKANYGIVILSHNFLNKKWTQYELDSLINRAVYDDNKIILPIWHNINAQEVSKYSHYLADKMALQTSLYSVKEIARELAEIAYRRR

[5] = target: macro domain of EcThsA (EcThsA^Macro; residues 62 to 278), wild type (E. coli CFT073); experiment: SEC-MALS; Superdex 200 5/150 Increase equilibrated in gel filtration buffer, 30 μl of EcThsA^Macro at 0.25 ml/min; no ligand; monomer to dimer
[6] = target: macro domain of EcThsA (EcThsA^Macro; residues 62 to 278), wild type (E. coli CFT073); experiment: aggregation assay (SDS-PAGE of soluble and insoluble fractions); protein 47 μM incubated with 1 mM ADPR (or 1 mM IAD) at 4°C for 1 hour; higher-order self-association of the dimers
[7] = target: T4, EcThsB1, TIR domain; experiment: 1H NMR base-exchange assay; assay type: biochemical
[8] = target: T2, EcThsA (ThsA TM-macro effector), macro domain; experiment: ITC (~[…]); STD NMR; assay type: binding
[9] = target: T3, EcThsA (ThsA TM-macro effector), macro domain; experiment: crystal structure of soaked complex ([…] Å); STD NMR; assay type: binding
[10] = target: T5, EcThsA (ThsA TM-macro effector), macro domain (Escherichia coli, UniProt A0A0H2V895, N114A); experiment: STD NMR; assay type: binding
T5 construct: gene c2400; EcThsA^Macro; residues 62 to 278

T1 sequence (A0A7Y5Z1U6 entry or part of it): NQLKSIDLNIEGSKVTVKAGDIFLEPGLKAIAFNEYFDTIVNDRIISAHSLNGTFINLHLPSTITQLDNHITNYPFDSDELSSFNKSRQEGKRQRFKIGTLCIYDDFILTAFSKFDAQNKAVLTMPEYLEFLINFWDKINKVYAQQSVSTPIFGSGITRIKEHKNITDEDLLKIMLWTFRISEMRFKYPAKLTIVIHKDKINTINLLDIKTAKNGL

## Nc1ncnc2c1ncn2[C@@H]1O[C@H](COP(=O)(O)OP(=O)(O)OC[C@H]2O[C@@H](n3ccnc3)[C@H](O)[C@@H]2O)[C@@H](O)[C@H]1O [IAD]
[1]
  crystal structure (1.6 Å) with copurified ligand; LC-MS: revealed that the PcThsA^Macro bound nucleotide has a mass corresponding to IAD
[2]
  Kd: 167 ± 91 nM
[3]
  ligand-induced self-aggregation of purified protein (turbidity, SDS-PAGE): demonstrating that only ADPR and IAD can trigger self-aggregation of EcThsA^Macro

## NC(=O)c1ccc[n+]([C@@H]2O[C@H](COP(=O)([O-])OP(=O)(O)OC[C@H]3O[C@@H](n4cnc5c(N)ncnc54)[C@H](O)[C@@H]3O)[C@@H](O)[C@H]2O)c1 [NAD^+]
[4]
  real-time 1H NMR NADase assay: could use NAD^+ as a substrate to produce nicotinamide and ADP ribose (ADPR)

## macro domain of EcThsA (EcThsA^Macro; residues 62 to 278), wild type (domain or fragment)
[5]
  stoichiometry N: 2
[6]
  percent of the protein in the insoluble fraction after incubation with ADPR or IAD: > 50%

## NCCc1c[nH]cn1 [histamine]
[7]
  1H NMR base-exchange assay: EcThsB1^TIR could use the histidine catabolite histamine as a substrate in base-exchange reactions, but not histidine

## Nc1ncnc2c1ncn2[C@@H]1O[C@H](COP(=O)(O)OP(=O)(O)OC[C@H]2O[C@H](O)[C@H](O)[C@@H]2O)[C@@H](O)[C@H]1O [ADPR]
[8]
  Kd: 4600 ± 500 nM
[9]
  crystal structure of soaked complex (2.1 Å); STD NMR: we observed continuous electron density for a molecule corresponding to ADPR in a highly conserved cleft
[10]
  STD NMR: The N114A mutant could still bind ADPR (Fig. 1I), but the STD NMR signal intensities were different

## c1c[nH]cn1 [imidazole]
[7]
  1H NMR base-exchange assay: only imidazole, histamine, and thiazole were observed to undergo base-exchange reactions with NAD^+ in the presence of EcThsB1^TIR

From article PMC11204291, “Structural characterization of macro domain–containing Thoeris antiphage defense systems” (Science Advances, 2024)
